# Measured values taken from PMC7160673, “A Degenerate Peptide Library Approach to Reveal Sequence Determinants of Methyllysine-Driven Protein Interactions” (Frontiers in Cell and Developmental Biology, 2020).
# Where no end group is shown, it is not given here. Me2a = asymmetric dimethyl on Arg; Peg = not defined here
# System: 53BP1 TTD
# Assay: Histone peptide microarray, 53BP1 TTD
# Format: binding
# Details: 53BP1 TTD hits, average signal per peptide
# Method: (§1) Peptide microarrays were fabricated using an Aushon 2470 microarrayer and used as described ([Cornett et al., 2017]) with the following modifications. Protein and antibody hybridization steps were performed in buffer containing 25 mM HEPES pH 7.5, 100 mM NaCl, 0.5% BSA (w/v), and 0.1% NP-40. Slides were washed 3 × 5 min in PBS supplemented with 0.1% Tween-20 between each hybridization step. Antibodies used were primary anti-GST (Sigma #7781, 1:2,000 dilution) and an AlexaFluor 647-labeled secondary antibody (Life Technologies A-21245, 1:5,000 dilution). […] Full lists of peptides queried by array analysis are in Supplementary Table S2.
row,Substance,Avg Signal
1,ARTK(Me3)QTARK(Ac)STGGK(Ac)APRKQL-K(Biot)-NH2 [H3.1K4me3K9acK14ac],0.06229
2,Ac-IAQDFK(Me2)TDLRF-Peg-K(Biot)-NH2 [Peptide H3.1K79me2],0.2119
3,ARTK(Me3)QTARK(Ac)STGGKAPRK(Ac)QL-K(Biot)-NH2 [H3.1K4me3K9acK18ac],0.0915
4,AR(Me2a)TK(Me3)QTARKpSTGGKAPRKQL-K(Biot)-NH2 [H3.1R2me2aK4me3S10p],0.1482
5,AR(Me2a)TK(Me3)QTARKSTGGKAPRKQL-K(Biot)-NH2 [H3.1R2me2aK4me3],0.09687
6,ACitTKQTARKSTGGKAPRKQL-K(Biot)-NH2 [Peptide H3.1Cit2],0.1308
7,ARTK(Me3)QTARKSTGGK(Ac)APRKQL-K(Biot)-NH2 [H3.1K4me3K14ac],0.1175

# System: Millipore #07-449, anti-H3K27me3
# Assay: Histone peptide microarray, Millipore 07-449
# Format: binding
# Details: Millipore 07-449 (anti-H3K27me3) hits, average signal per peptide
# Method: as §1
row,Substance,Avg Signal
1,ARTKQTARK(Me2)STGGKAPRKQLATKAARK(Me)SAPAT-Peg-Biot [H3.1K9me2K27me1],0.004141
2,Ac-SGRGK(Me)GGKGLGKGGAKRHRKVLR-Peg-Biot [Peptide H4K5me1],0.002242
3,ATKAARKSAPATGGVK(Me)KPHRYRPG-GK(Biotin)-OH [Peptide H3.1K36me1],0.002073
4,Ac-APRK(Ac)QLATK(Ac)AARK(Ac)pSAPSTGG-Peg-Biot [H3.3K18acK23acK27acS28p],0.0009622
5,Ac-SGRGK(Ac)GGK(Me)GLGK(Ac)GGAKRHRKVLR-Peg-Biot [H4K5acK8me1K12ac],0.005126
6,H3.1.1(1-32),0.003069
7,Biot-Peg-GKKATQApSQEY-OH [Peptide H2A.XS139p],0.0003137
8,ATKAARKSAPATGGVK(Ac)KPHRYRPG-GK(Biotin)-OH [Peptide H3.1K36ac],0.004604
9,ARTK(Me3)QTARK(Ac)STGGK(Ac)APRKQL-K(Biot)-NH2 [H3.1K4me3K9acK14ac],0.05366
10,Ac-IAQDFK(Me2)TDLRF-Peg-K(Biot)-NH2 [Peptide H3.1K79me2],0.002961
11,ARTK(Me3)QTARK(Ac)STGGKAPRK(Ac)QL-K(Biot)-NH2 [H3.1K4me3K9acK18ac],0.05409
12,Ac-APRKQLATK(Me)AARKSAPATGG-Peg-K(Biot)-NH2 [Peptide H3.1K23me1],0.003618
13,AR(Me2a)TK(Me3)QTARKpSTGGKAPRKQL-K(Biot)-NH2 [H3.1R2me2aK4me3S10p],0.02048
14,AR(Me2a)TK(Me3)QTARKSTGGKAPRKQL-K(Biot)-NH2 [H3.1R2me2aK4me3],0.02156
15,ARTK(Me3)QTARKSTGGK(Ac)APRKQL-K(Biot)-NH2 [H3.1K4me3K14ac],0.02658
16,ATKAARKSAPATGGVK(Me2)KPHRYRPG-GK(Biotin)-OH [Peptide H3.1K36me2],0.005826

# System: CST 9733 (anti-H3K27me3)
# Assay: Histone peptide microarray, CST 9733
# Format: binding
# Details: histone peptide array signal normalized to the highest peptide average per subarray, hits; CST 9733 LOT:14 dilution 1:5,000
# Method: as §1
row,Substance,Avg Signal
1,ARTK(Me3)QTARK(Ac)STGGK(Ac)APRKQL-K(Biot)-NH2 [H3.1K4me3K9acK14ac],0.005042
2,ARTK(Me3)QTARK(Ac)STGGKAPRK(Ac)QL-K(Biot)-NH2 [H3.1K4me3K9acK18ac],0.009868
3,AR(Me2a)TK(Me3)QTARKpSTGGKAPRKQL-K(Biot)-NH2 [H3.1R2me2aK4me3S10p],0.01157
4,AR(Me2a)TK(Me3)QTARKSTGGKAPRKQL-K(Biot)-NH2 [H3.1R2me2aK4me3],0.001321
5,ACitTKQTARKSTGGKAPRKQL-K(Biot)-NH2 [Peptide H3.1Cit2],0.005497
6,ARTK(Me3)QTARKSTGGK(Ac)APRKQL-K(Biot)-NH2 [H3.1K4me3K14ac],0.004624

# System: Abcam #ab8895, anti-H3K4me1
# Assay: Histone peptide microarray, Abcam ab8895
# Format: binding
# Details: Abcam ab8895 (anti-H3K4me1) hits, average signal per peptide
# Method: as §1
row,Substance,Avg Signal
1,ARTKQTARK(Me2)STGGKAPRKQLATKAARK(Me)SAPAT-Peg-Biot [H3.1K9me2K27me1],0.3474
2,Ac-SGRGK(Me)GGKGLGKGGAKRHRKVLR-Peg-Biot [Peptide H4K5me1],0.01832
3,ATKAARKSAPATGGVK(Me)KPHRYRPG-GK(Biotin)-OH [Peptide H3.1K36me1],0.0206
4,Ac-SGRGK(Ac)GGK(Me)GLGK(Ac)GGAKRHRKVLR-Peg-Biot [H4K5acK8me1K12ac],0.003463
5,H3.1.1(1-32),0.3398
6,Biot-Peg-GKKATQApSQEY-OH [Peptide H2A.XS139p],0.05956
7,ARTKQTAR(Me2a)KSTGGKAPRKQL-Peg-Biot (chain 2 KSTGGKAPRKQL-{Peg-Biot}; not fully specified; reading uncertain) [Peptide H3.1R8me2a],0.06138
8,Ac-SGRGKGGK(Me)GLGKGGAKRHRKVLR-Peg-Biot [Peptide H4K8me1],0.01379
9,Ac-APRKQLATK(Me)AARKSAPATGG-Peg-K(Biot)-NH2 [Peptide H3.1K23me1],0.124
10,AR(Me2a)TK(Me3)QTARKpSTGGKAPRKQL-K(Biot)-NH2 [H3.1R2me2aK4me3S10p],0.0003692
11,ACitTKQTARKSTGGKAPRKQL-K(Biot)-NH2 [Peptide H3.1Cit2],0.01656
12,ARTK(Me3)QTARKSTGGK(Ac)APRKQL-K(Biot)-NH2 [H3.1K4me3K14ac],0.0003256
13,ATKAARKSAPATGGVK(Me2)KPHRYRPG-GK(Biotin)-OH [Peptide H3.1K36me2],0.1144

# System: ABClonal #A2355, anti-H3K4me1
# Assay: Histone peptide microarray, ABclonal A2355
# Format: binding
# Details: Abclonal A2355 (anti-H3K4me1) hits
# Method: as §1
row,Substance,Avg Signal
1,ARTKQTARK(Me2)STGGKAPRKQLATKAARK(Me)SAPAT-Peg-Biot [H3.1K9me2K27me1],0.05183
2,Ac-SGRGK(Me)GGKGLGKGGAKRHRKVLR-Peg-Biot [Peptide H4K5me1],0.006523
3,PEPAKSAPAPKK(Ac)GSK(Ac)K(Ac)AVTK(Ac)AQKK-Peg-Biot [H2BK12acK15acK16acK20ac],0.0003507
4,Ac-SGRGK(Ac)GGKGLGKGGAKRHRK(Ac)VLR-Peg-Biot [Peptide H4K5acK20ac],0.0007556
5,ATKAARKSAPATGGVK(Me)KPHRYRPG-GK(Biotin)-OH [Peptide H3.1K36me1],0.006039
6,Ac-APRK(Ac)QLATK(Ac)AARK(Ac)pSAPSTGG-Peg-Biot [H3.3K18acK23acK27acS28p],0.0001631
7,Ac-SGRGK(Ac)GGK(Me)GLGK(Ac)GGAKRHRKVLR-Peg-Biot [H4K5acK8me1K12ac],0.01786
8,H3.1.1(1-32),0.04529
9,Biot-Peg-GKKATQApSQEY-OH [Peptide H2A.XS139p],0.02695
10,ATKAARKSAPATGGVK(Ac)KPHRYRPG-GK(Biotin)-OH [Peptide H3.1K36ac],0.001664
11,ARTKQTAR(Me2a)KSTGGKAPRKQL-Peg-Biot (chain 2 KSTGGKAPRKQL-{Peg-Biot}; not fully specified; reading uncertain) [Peptide H3.1R8me2a],0.000963
12,Ac-SGRGKGGK(Me)GLGKGGAKRHRKVLR-Peg-Biot [Peptide H4K8me1],0.02626
13,Ac-IAQDFK(Me2)TDLRF-Peg-K(Biot)-NH2 [Peptide H3.1K79me2],0.0001532
14,Ac-APRKQLATK(Me)AARKSAPATGG-Peg-K(Biot)-NH2 [Peptide H3.1K23me1],0.3577
15,ATKAARKSAPATGGVK(Me2)KPHRYRPG-GK(Biotin)-OH [Peptide H3.1K36me2],0.06205

# System: Active Motif #39161, anti-H3K9me3
# Assay: Histone peptide microarray, Active Motif 39161
# Format: binding
# Details: Active Motif 39161 (anti-H3K9me3) hits
# Method: as §1
row,Substance,Avg Signal
1,ARTKQTARK(Me2)STGGKAPRKQLATKAARK(Me)SAPAT-Peg-Biot [H3.1K9me2K27me1],0.02404
2,Ac-SGRGK(Me)GGKGLGKGGAKRHRKVLR-Peg-Biot [Peptide H4K5me1],0.04055
3,PEPAKSAPAPKK(Ac)GSK(Ac)K(Ac)AVTK(Ac)AQKK-Peg-Biot [H2BK12acK15acK16acK20ac],0.009853
4,Ac-SGRGK(Ac)GGKGLGKGGAKRHRK(Ac)VLR-Peg-Biot [Peptide H4K5acK20ac],0.0005946
5,ATKAARKSAPATGGVK(Me)KPHRYRPG-GK(Biotin)-OH [Peptide H3.1K36me1],0.001641
6,Ac-APRK(Ac)QLATK(Ac)AARK(Ac)pSAPSTGG-Peg-Biot [H3.3K18acK23acK27acS28p],0.004946
7,Ac-SGRGK(Ac)GGK(Me)GLGK(Ac)GGAKRHRKVLR-Peg-Biot [H4K5acK8me1K12ac],0.01545
8,ATKAARKSAPATGGVK(Ac)KPHRYRPG-GK(Biotin)-OH [Peptide H3.1K36ac],0.009457
9,ARTKQTAR(Me2a)KSTGGKAPRKQL-Peg-Biot (chain 2 KSTGGKAPRKQL-{Peg-Biot}; not fully specified; reading uncertain) [Peptide H3.1R8me2a],0.01209
10,Ac-SGRGKGGK(Me)GLGKGGAKRHRKVLR-Peg-Biot [Peptide H4K8me1],0.0007159
11,ARTK(Me3)QTARK(Ac)STGGK(Ac)APRKQL-K(Biot)-NH2 [H3.1K4me3K9acK14ac],0.01712
12,ARTK(Me3)QTARK(Ac)STGGKAPRK(Ac)QL-K(Biot)-NH2 [H3.1K4me3K9acK18ac],0.01916
13,Ac-APRKQLATK(Me)AARKSAPATGG-Peg-K(Biot)-NH2 [Peptide H3.1K23me1],0.004448
14,AR(Me2a)TK(Me3)QTARKpSTGGKAPRKQL-K(Biot)-NH2 [H3.1R2me2aK4me3S10p],0.007954
15,AR(Me2a)TK(Me3)QTARKSTGGKAPRKQL-K(Biot)-NH2 [H3.1R2me2aK4me3],0.01254
16,ACitTKQTARKSTGGKAPRKQL-K(Biot)-NH2 [Peptide H3.1Cit2],0.002403
17,ARTK(Me3)QTARKSTGGK(Ac)APRKQL-K(Biot)-NH2 [H3.1K4me3K14ac],0.009793
18,ATKAARKSAPATGGVK(Me2)KPHRYRPG-GK(Biotin)-OH [Peptide H3.1K36me2],0.01273
